From patent US20210071180A1, “MICRORNA 584-5P COMPOSITIONS AND METHODS FOR TREATING CANCER” (BOARD OF REGENTS, THE UNIVERSY OF TEXAS SYSTEM, priority 2018, published 2021)

Legend:
Format in all cases: cell-based
MB cells [1] = assay: IR dose-response, alamarBlue cell viability assay; details: IR for 24 hours, normalized to 0 Gy
Text: (§1) FIG. 13C-D show representative immunofluorescence images showing 53BP1 foci in D556Med cells transfected with miR-NC or miR-584-5p mimic (C) or scramble-siRNA or eIF4E3/HDAC1-siRNAs (D) and treated with or without 10 Gy of IR.
VCR is routinely used during and after radiation therapy to treat MB patients (Packer, R. J. et al. J Neurosurg 74, 433-440, (1991)), mainly because microtubule-targeting agents such as VCR enhances the toxic effects of DNA-damaging agents, including radiation (Poruchynsky, M. S. et al. Proc Natl Acad Sci USA 112, 1571-1576, (2015); and Oehler, C. et al. Neuro Oncol 13, 1000-1010, doi:10.1093/neuonc/nor069 (2011)). Moreover, cells in G2/M phase are the most sensitive to IR (Pawlik, T. M. & Keyomarsi, K. Int J Radiat Oncol Biol Phys 59, 928-942, (2004)). […] All values were normalized to 0 Gy. […] Error bars represent mean±SEM. Next, it was determined whether eIF4E3 or HDAC1 may mediate miR-584-5p's IR response. […] All values were normalized to 0 Gy. […] Error bars represent mean±SEM.

MB cells [2] = assay: 53BP1 nuclear foci immunofluorescence (DNA strand breaks); details: vs scrambled-transfected MB cells
Procedure: as §1
Bar graphs next to images show average number of 53BP1 foci/cell. The p-values were determined by two-way ANOVA followed by Sidak's multiple-comparisons test. Error bars represent mean±SEM. Because miR-584-5p induces apoptosis, it was reasoned that DNA strand breaks induced by miR-584-5p and eIF4E3/HDAC1 silencing may not be properly repaired. To confirm those findings, a functional assay was performed to monitor homologous recombination (HR) because HR-dependent events repair IR-induced double-strand breaks in G2 phase. The ISceI-based DR-GFP reporter assay, which measures the frequency of double-strand break repair by HR (Gunn, A., Bennardo, N., Cheng, A. & Stark, J. M. Journal of Biological Chemistry 286, 42470-42482, (2011); Pierce, A. J., Johnson, R. D., Thompson, L. H. & Jasin, M. Genes & Development 13, 2633-2638, (1999); and Stark, J. M., Pierce, A. J., Oh, J., Pastink, A. & Jasin, M. Molecular and Cellular Biology 24, 9305-9316, (2004)), was used. […] The p-values were calculated using either Student t-tests (mimic) or one-way ANOVA followed by Dunnett's multiple-comparisons test (siRNAs). […]

[3] = system: D425Med and D458Med cells; assay: Gene expression profiling (Illumina HT-12 v4 BeadChip)
Procedure: Data are z-transformed. The cutoff criteria for each gene are fold change >2, sample intensity >10, and p-value <0.05. […] To validate the gene expression analysis and target prediction results, it was determined whether miR-584-5p reduced HDAC1/eIF4E3 expression by binding to their 3′-untranslated regions (3′-UTRs). […] Also shown are the portion of the miR-584-5p sequence (SEQ ID NO: 15; UAUGGUU) that binds to the wild-type 3′UTR and seed sequence mutant (SEQ ID NO: 16; […], top panel; and SEQ ID NO: 17; […]; bottom panel). Also shown is miR-584-5p seed sequence mutated sequences. […] Values were normalized to firefly luciferase, which served as an internal control. The p-values were calculated using standard Student t-tests. Error bars represent mean±SEM. […] The p-values were calculated using standard Student t-tests.

neural stem cell markers = assay: qPCR analysis of neural stem cell markers; details: miR-584-5p mimic-transfected cells
Procedure: Several research groups have posited the presence of tumor-initiating cells in MBs (Manoranjan, B. et al. Pediatr Res 71, 516-522, (2012)). Moreover, the tumor-initiating cells in general have not responded to radiation and chemotherapy drugs (Manoranj an, B. et al. Pediatr Res 71, 516-522, (2012)). Therefore, it was tested whether miR-584 may inhibit MB tumor-initiating cell proliferation. Consistent with the characteristics of tumor-initiating cells, MB cells cultured in serum-free stem cell media formed tumor spheres that were serially passaged for many cycles (FIG. 14A). Bar graphs show number and size of medullospheres obtained from D556Med cells transfected with miR-NC or miR-584-5p mimic. The p-value was calculated using a standard Student t-test. Error bars represent mean±SEM. […] The p-value was calculated using one-way ANOVA followed by Sidak's multiple-comparisons test. Error bars represent mean±SEM. These findings are highly significant because, this study is one of the first to propose a role for miR-584-5p and its target genes in regulating MB stem cell proliferation.

HDAC1 = assay: qPCR and Western blot of HDAC1 in MB cells; details: transcript and protein levels, all cell lines tested

In the case of “miR-584-5p: microRNA mimic; nucleotide sequence UUAUGGUUUGCCUGGGACUGAG (SEQ ID NO: 1); purchased from Thermofisher (chemistry not given here)”, the “sensitivity to IR relative to scrambled-transfected cells” value (MB cells [1]) is reported as 10 fold, the 53BP1 foci (MB cells [2]) is reported as “significantly more 53BP1 foci” and the TUBB4 expression ([3]; confirmed by real-time PCR) is reported as “among the highly downregulated genes”. For the same substance, the FOXO1 levels ([3]; miR-584-5p-treated MB cells) was “did not change”, the “levels of neural stem cell markers” value (neural stem cell markers) was “significantly reduced” and the “expression of HDAC1” value (HDAC1) was “significantly reduced expression”.
